According to patent US12290596B2, “Compositions and methods for the treatment of opioid overdose” (priority 2021, dated 2025):

Assay: Three-treatment crossover pharmacokinetics of IN nalmefene, three dosing regimens (Example 13)
Conditions: for half-life / AUC(0-t) / AUC(0-inf) / Cmax / Vd/F / concentration at 3 h / concentration at 4 h / concentration at 6 h / concentration at 8 h / concentration at 12 h / concentration at 18 h / concentration at 24 h / concentration at 48 h: human, plasma, other: intranasal (IN spray); for AUC(0-t) / AUC(0-inf) / Cmax / Vd/F: mean; for AUC(0-inf): AUCinf; for Vd/F: Vz/F; for concentration at 3 h / concentration at 4 h / concentration at 6 h / concentration at 8 h / concentration at 12 h / concentration at 18 h / concentration at 24 h / concentration at 48 h: T1 (3 mg IN, one spray in one nostril)
[1] = Treatment A (T1) 3 mg in one nostril
[2] = Treatment B (T2) 3 mg in each nostril (6 mg)
[3] = Treatment C (T3) 6 mg in one nostril
[4] = 3 mg, Treatment A (T1) 3 mg in one nostril
[5] = 6 mg, Treatment B (T2) 3 mg in each nostril (6 mg)
[6] = 6 mg, Treatment C (T3) 6 mg in one nostril

## C=C1CC[C@@]2(O)[C@H]3Cc4ccc(O)c5c4[C@@]2(CCN3CC2CC2)[C@H]1O5 [Nalmefene, 17-cyclopropylmethyl-4,5α-epoxy-6-methylenemorphinan-3,14-diol]
ANOVA
  Dose-normalized Cmax lower after Treatment C (T3) compared to Treatment A (T1): approximately 19%
[1]
  AUC0-2.5 min/D, mean: 0.00276 ng·h/mL/mg
  AUC0-5 min/D, mean: 0.0206 ng·h/mL/mg
  AUC0-7.5 min/D, mean: 0.0728 ng·h/mL/mg
  AUC0-10 min/D, mean: 0.160 ng·h/mL/mg
  AUC0-15 min/D, mean: 0.393 ng·h/mL/mg
  AUC0-20 min/D, mean: 0.639 ng·h/mL/mg
  AUC0-30 min/D, mean: 1.06 ng·h/mL/mg
  AUCextrap, mean: 4.22%
  CL/F, mean: 66.9 L/h
  Cmax/D, mean: 3.59 ng/mL/mg
[2]
  AUC0-2.5 min/D, mean: 0.0072 ng·h/mL/mg
  AUC0-5 min/D, mean: 0.0369 ng·h/mL/mg
  AUC0-7.5 min/D, mean: 0.106 ng·h/mL/mg
  AUC0-10 min/D, mean: 0.202 ng·h/mL/mg
  AUC0-15 min/D, mean: 0.445 ng·h/mL/mg
  AUC0-20 min/D, mean: 0.691 ng·h/mL/mg
  AUC0-30 min/D, mean: 1.08 ng·h/mL/mg
  AUCextrap, mean: 3.61%
  AUClast/D, mean: 14.4 ng·h/mL/mg
  CL/F, mean: 69.2 L/h
  Cmax/D, mean: 3.70 ng/mL/mg
[3]
  AUC0-2.5 min/D, mean: 0.00455 ng·h/mL/mg
  AUC0-5 min/D, mean: 0.0244 ng·h/mL/mg
  AUC0-7.5 min/D, mean: 0.0803 ng·h/mL/mg
  AUC0-10 min/D, mean: 0.165 ng·h/mL/mg
  AUC0-15 min/D, mean: 0.374 ng·h/mL/mg
  AUC0-20 min/D, mean: 0.588 ng·h/mL/mg
  AUC0-30 min/D, mean: 0.931 ng·h/mL/mg
  AUCextrap, mean: 4.18%
  AUClast/D, mean: 13.7 ng·h/mL/mg
  CL/F, mean: 73.3 L/h
  Cmax/D, mean: 3.15 ng/mL/mg
3 mg
  half-life: 11.4 h
3 mg, AUC0-5 min, Treatment A (T1) 3 mg in one nostril
  AUC(0-t): 0.0618 ng·h/mL
3 mg, AUC0-10 min, Treatment A (T1) 3 mg in one nostril
  AUC(0-t): 0.48 ng·h/mL
3 mg, AUC0-15 min, Treatment A (T1) 3 mg in one nostril
  AUC(0-t): 1.18 ng·h/mL
3 mg, AUC0-20 min, Treatment A (T1) 3 mg in one nostril
  AUC(0-t): 1.92 ng·h/mL
3 mg, AUC0-30 min, Treatment A (T1) 3 mg in one nostril
  AUC(0-t): 3.19 ng·h/mL
3 mg, AUC0-[…], Treatment A (T1) 3 mg in one nostril
  AUC(0-t): 0.219 ng·h/mL
[4]
  AUC(0-inf): 46.8 ng·h/mL
  Cmax: 10.8 ng/mL
  Vd/F: 1090 L
3 mg, AUClast, Treatment A (T1) 3 mg in one nostril
  AUC(0-t): 44.9 ng·h/mL
3 mg, Max
  concentration at 3 h: 6.01 ng/mL
  concentration at 4 h: 4.86 ng/mL
  concentration at 6 h: 3.01 ng/mL
  concentration at 8 h: 2.19 ng/mL
  concentration at 12 h: 1.51 ng/mL
  concentration at 18 h: 0.851 ng/mL
  concentration at 24 h: 0.785 ng/mL
  concentration at 48 h: 0.184 ng/mL
3 mg, Median
  concentration at 3 h: 3.51 ng/mL
  concentration at 4 h: 2.78 ng/mL
  concentration at 6 h: 2.07 ng/mL
  concentration at 8 h: 1.34 ng/mL
  concentration at 12 h: 0.985 ng/mL
  concentration at 18 h: 0.581 ng/mL
  concentration at 24 h: 0.37 ng/mL
  concentration at 48 h: 0.088 ng/mL
3 mg, Min
  concentration at 12 h: 0.727 ng/mL
  concentration at 18 h: 0.37 ng/mL
  concentration at 24 h: 0.261 ng/mL
  concentration at 48 h: 0 ng/mL
6 mg
  half-life: 11.3 h
6 mg, AUC0-5 min, Treatment B (T2) 3 mg in each nostril (6 mg)
  AUC(0-t): 0.222 ng·h/mL
6 mg, AUC0-5 min, Treatment C (T3) 6 mg in one nostril
  AUC(0-t): 0.146 ng·h/mL
6 mg, AUC0-10 min, Treatment B (T2) 3 mg in each nostril (6 mg)
  AUC(0-t): 1.21 ng·h/mL
6 mg, AUC0-10 min, Treatment C (T3) 6 mg in one nostril
  AUC(0-t): 0.988 ng·h/mL
6 mg, AUC0-15 min, Treatment B (T2) 3 mg in each nostril (6 mg)
  AUC(0-t): 2.67 ng·h/mL
6 mg, AUC0-15 min, Treatment C (T3) 6 mg in one nostril
  AUC(0-t): 2.24 ng·h/mL
6 mg, AUC0-20 min, Treatment B (T2) 3 mg in each nostril (6 mg)
  AUC(0-t): 4.14 ng·h/mL
6 mg, AUC0-20 min, Treatment C (T3) 6 mg in one nostril
  AUC(0-t): 3.53 ng·h/mL
6 mg, AUC0-30 min, Treatment B (T2) 3 mg in each nostril (6 mg)
  AUC(0-t): 6.46 ng·h/mL
6 mg, AUC0-30 min, Treatment C (T3) 6 mg in one nostril
  AUC(0-t): 5.58 ng·h/mL
[5]
  AUC(0-inf): 89.5 ng·h/mL
  Cmax: 22.2 ng/mL
  Vd/F: 1120 L
[6]
  AUC(0-inf): 85.7 ng·h/mL
  Vd/F: 1190 L
6 mg, AUClast, Treatment B (T2) 3 mg in each nostril (6 mg)
  AUC(0-t): 86.2 ng·h/mL
6 mg, AUClast, Treatment C (T3) 6 mg in one nostril
  AUC(0-t): 82.1 ng·h/mL
